Counter-ions that a name gives are not always drawn.
Assays:
[1] = test system: late components of human complement (C3-C9); experiment: Test, Code 035 (C3-C9 inhibitor), lysis of EAC 142; type: cell-based; conditions: serial two-fold dilutions assay; higher well number indicates higher activity
Method: This test measures the ability of activated human C1 to destroy fluid phase human C2 in the presence of C4 and appropriate dilutions of the test compound. An active inhibitor protects C2 from C1 and C4; (ii) Test, Code 035 (C3-C9 inhibitor) -- This test determines the ability of the late components of human complement (C3-C9) to lyse EAC 142 in the presence of appropriate dilutions of the test compound. […] The lesion is measured in terms of diameter, edema and hemorrhage and the extent to which a combined index of these is inhibited by prior intraperitoneal injection of the test compound at 200 mg/kg is then reported, unless otherwise stated; (v) Forssman Shock Test -- Lethal shock is produced in guinea pigs by an i.v. injection of anti-Forssman antiserum and the harmonic mean death time of treated guinea pigs is compared with that of simultaneous controls; (vi) Complement Level Reduction Test -- In this test, the above dosed guinea pigs, or others, are bled for serum and the complement level is determined in undiluted serum by the capillary tube method of U.S. Pat. No. 3,876,376 and compared to undosed control guinea pigs; and (vii) Cap 50 Test -- Here, appropriate amounts of the test compound are added to a pool of guinea pig serum in vitro, after which the undiluted serum capillary tube assay referred to above is run. […]

[2] = test system: shunt pathway activated by cobra venom factor; experiment: Test, Code 036 (C-Shunt inhibitor), lysis of human erythrocytes in autologous serum; type: cell-based; conditions: serial two-fold dilutions assay; higher well number indicates higher activity
Text: (§1) This test measures the ability of activated human C1 to destroy fluid phase human C2 in the presence of C4 and appropriate dilutions of the test compound. An active inhibitor protects C2 from C1 and C4; (ii) Test, Code 035 (C3-C9 inhibitor) -- This test determines the ability of the late components of human complement (C3-C9) to lyse EAC 142 in the presence of appropriate dilutions of the test compound. An active inhibitor protects EAC 142 from lysis by human C3-C9; (iii) Test, Code 036 (C-Shunt inhibitor) -- In this test human erythrocytes rendered fragile are lysed in autologous serum via the shunt pathway activated by cobra venom factor in the presence of appropriate dilutions of the test compound. Inhibition of the shunt pathway results in failure of lysis; (iv) Forssman Vasculitis Test -- Here, the well known complement dependent lesion, Forssman vasculitis, is produced in guinea pigs by intradermal injection of rabbit anti-Forssman antiserum. The lesion is measured in terms of diameter, edema and hemorrhage and the extent to which a combined index of these is inhibited by prior intraperitoneal injection of the test compound at 200 mg/kg is then reported, unless otherwise stated; (v) Forssman Shock Test -- Lethal shock is produced in guinea pigs by an i.v. injection of anti-Forssman antiserum and the harmonic mean death time of treated guinea pigs is compared with that of simultaneous controls; (vi) Complement Level Reduction Test -- In this test, the above dosed guinea pigs, or others, are bled for serum and the complement level is determined in undiluted serum by the capillary tube method of U.S. Pat. No. 3,876,376 and compared to undosed control guinea pigs; and (vii) Cap 50 Test -- Here, appropriate amounts of the test compound are added to a pool of guinea pig serum in vitro, after which the undiluted serum capillary tube assay referred to above is run. The concentration of compound inhibiting 50% is reported.
(§2) **Numbers represent activity in wells, a serial dilutions assay, higher
(§3) well number indicates higher activity. The serial dilutions are two-fold.

[3] = test system: guinea pigs; experiment: Forssman Shock Test; type: in vivo, guinea pig; conditions: control = 3.15 minutes
Text: as §1
***Harmonic mean death time in minutes. (control = 3.15 minutes).

[4] = molecular target: T1, activated human C1 (Homo sapiens, UniProt P09871); experiment: Test, Code 026 (C1 inhibitor); type: biochemical; conditions: serial two-fold dilutions assay; higher well number indicates higher activity
T1 construct: C1s cleaved into disulfide-linked heavy and light chains; fluid-phase C2 consumption with C4
T1 sequence (P09871 16-688): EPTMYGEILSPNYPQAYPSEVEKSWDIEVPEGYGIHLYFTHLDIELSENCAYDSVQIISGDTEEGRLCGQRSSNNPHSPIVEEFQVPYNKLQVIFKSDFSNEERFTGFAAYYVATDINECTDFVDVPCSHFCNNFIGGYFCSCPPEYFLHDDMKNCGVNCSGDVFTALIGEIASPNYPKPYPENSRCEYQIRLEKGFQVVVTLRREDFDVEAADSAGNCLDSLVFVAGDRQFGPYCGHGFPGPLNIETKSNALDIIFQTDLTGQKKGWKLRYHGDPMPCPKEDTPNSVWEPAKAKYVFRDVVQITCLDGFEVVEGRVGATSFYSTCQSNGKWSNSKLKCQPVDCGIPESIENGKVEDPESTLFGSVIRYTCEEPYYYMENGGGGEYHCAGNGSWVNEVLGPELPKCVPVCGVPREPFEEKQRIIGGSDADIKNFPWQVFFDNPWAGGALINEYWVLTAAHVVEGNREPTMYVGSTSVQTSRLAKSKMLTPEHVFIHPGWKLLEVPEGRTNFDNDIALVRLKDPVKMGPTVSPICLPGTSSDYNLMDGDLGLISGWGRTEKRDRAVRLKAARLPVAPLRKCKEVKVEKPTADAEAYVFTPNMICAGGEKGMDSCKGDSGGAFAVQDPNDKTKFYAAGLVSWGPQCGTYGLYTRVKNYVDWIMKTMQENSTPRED
T1 sequence (P00736 18-705 partner): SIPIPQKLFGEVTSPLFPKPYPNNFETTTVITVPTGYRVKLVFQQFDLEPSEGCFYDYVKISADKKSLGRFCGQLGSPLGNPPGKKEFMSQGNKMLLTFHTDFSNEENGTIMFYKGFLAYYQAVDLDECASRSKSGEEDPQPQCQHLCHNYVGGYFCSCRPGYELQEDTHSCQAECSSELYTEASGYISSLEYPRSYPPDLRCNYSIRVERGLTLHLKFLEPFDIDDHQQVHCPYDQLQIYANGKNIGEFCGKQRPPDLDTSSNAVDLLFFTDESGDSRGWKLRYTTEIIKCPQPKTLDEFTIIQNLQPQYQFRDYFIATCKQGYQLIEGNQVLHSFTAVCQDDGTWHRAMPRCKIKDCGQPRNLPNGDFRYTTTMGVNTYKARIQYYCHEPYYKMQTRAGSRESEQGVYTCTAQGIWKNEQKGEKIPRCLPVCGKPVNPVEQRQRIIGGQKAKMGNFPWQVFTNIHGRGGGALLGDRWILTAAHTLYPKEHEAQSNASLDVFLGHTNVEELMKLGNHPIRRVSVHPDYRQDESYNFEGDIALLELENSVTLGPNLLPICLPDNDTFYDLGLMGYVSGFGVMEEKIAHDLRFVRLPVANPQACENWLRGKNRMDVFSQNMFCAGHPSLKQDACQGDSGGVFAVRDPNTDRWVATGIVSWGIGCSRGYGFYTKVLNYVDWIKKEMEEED
T1 sequence (P02745 23-245 partner): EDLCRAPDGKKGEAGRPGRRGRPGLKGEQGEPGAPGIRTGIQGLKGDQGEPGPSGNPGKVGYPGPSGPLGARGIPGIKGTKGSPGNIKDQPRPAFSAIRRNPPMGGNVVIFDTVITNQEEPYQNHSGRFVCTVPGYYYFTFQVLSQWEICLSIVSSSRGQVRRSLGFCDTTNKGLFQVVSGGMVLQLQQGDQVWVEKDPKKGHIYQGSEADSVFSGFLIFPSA
T1 sequence (P02746 28-253 partner): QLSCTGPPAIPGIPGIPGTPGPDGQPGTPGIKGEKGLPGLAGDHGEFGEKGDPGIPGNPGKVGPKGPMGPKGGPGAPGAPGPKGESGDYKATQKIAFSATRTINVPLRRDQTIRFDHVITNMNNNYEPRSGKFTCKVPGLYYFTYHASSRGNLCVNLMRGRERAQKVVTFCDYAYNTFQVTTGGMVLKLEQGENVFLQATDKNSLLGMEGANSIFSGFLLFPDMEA
T1 sequence (P02747 29-245 partner): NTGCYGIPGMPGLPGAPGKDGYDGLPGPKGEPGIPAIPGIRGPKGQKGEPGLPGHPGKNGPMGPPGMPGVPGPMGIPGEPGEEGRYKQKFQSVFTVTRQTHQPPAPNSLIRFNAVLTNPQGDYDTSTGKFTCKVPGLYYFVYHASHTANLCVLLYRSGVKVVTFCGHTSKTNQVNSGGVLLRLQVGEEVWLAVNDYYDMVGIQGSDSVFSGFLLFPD
Text: as §1, §2, §3

Compound	Forssman Shock, harmonic mean death time ([3]; route not given)	Code 026 (activity in wells) [4]	also measured
O=C(Nc1cccc(C(=O)Nc2cc3c(S(=O)(=O)[O-])cc(S(=O)(=O)[O-])cc3cc2S(=O)(=O)[O-])c1)Nc1cccc(C(=O)Nc2cc3c(S(=O)(=O)[O-])cc(S(=O)(=O)[O-])cc3cc2S(=O)(=O)[O-])c1.[Na+].[Na+].[Na+].[Na+].[Na+].[Na+] [7,7'-[Ureylenebis(m-phenylenecarbonylimino)]di-1,3,6-naphthalenetrisulfonic acid, hexasodium salt]	14 min	–	Code 035 (activity in wells) [1]: +1 wells; Code 036 (activity in wells) [2]: +1 wells
Nc1cccc(C(=O)Nc2cc3c(S(=O)(=O)[O-])cc(S(=O)(=O)[O-])cc3cc2S(=O)(=O)[O-])c1.[Na+].[Na+].[Na+] [7-(m-Aminobenzamido)-1,3,6-naphthalenetrisulfonic acid, trisodium salt]	33 min	–	–
O=C(Nc1cc2c(S(=O)(=O)[O-])cc(S(=O)(=O)[O-])cc2cc1S(=O)(=O)[O-])c1cccc([N+](=O)[O-])c1.[Na+].[Na+].[Na+] [7-m-Nitrobenzamido-1,3,6-naphthalenetrisulfonic acid, trisodium salt]	20 min	–	–
Cc1ccc(C(=O)Nc2cc(S(=O)(=O)O)cc3cc(S(=O)(=O)O)cc(S(=O)(=O)O)c23)cc1NC(=O)Nc1cc(C(=O)Nc2cc(S(=O)(=O)O)cc3cc(S(=O)(=O)O)cc(S(=O)(=O)O)c23)ccc1C [8,8'-[Ureylenebis(4-methyl-m-phenylenecarbonylimino)]di-1,3,6-naphthalenetrisulfonic acid, hexasodium salt]	–	–	Forssman Shock, harmonic mean death time ([3]; i.p.): 28 min; Forssman Shock, harmonic mean death time ([3]; i.v.): 46 min
Cc1ccc(NC(=O)Nc2ccc(C)c(C(=O)Nc3cc(S(=O)(=O)O)cc4cc(S(=O)(=O)O)cc(S(=O)(=O)O)c34)c2)cc1C(=O)Nc1cc(S(=O)(=O)O)cc2cc(S(=O)(=O)O)cc(S(=O)(=O)O)c12 [8,8'-[Ureylenebis(6-methyl-m-phenylenecarbonylimino)]di-1,3,6-naphthalenetrisulfonic acid, hexasodium salt]	11 min	+5 wells	Code 035 (activity in wells) [1]: +4 wells
O=C(Nc1cccc(C(=O)Nc2cc(S(=O)(=O)[O-])cc3cc(S(=O)(=O)[O-])cc(S(=O)(=O)[O-])c23)c1)Nc1cccc(C(=O)Nc2cc(S(=O)(=O)[O-])cc3cc(S(=O)(=O)[O-])cc(S(=O)(=O)[O-])c23)c1.[Na+].[Na+].[Na+].[Na+].[Na+].[Na+] [8,8'-[Ureylenebis(m-phenylenecarbonylimino)]di-1,3,6-naphthalenetrisulfonicacid, hexasodium salt]	–	+6 wells	Code 036 (activity in wells) [2]: +1 wells
O=C(Nc1ccc(C(=O)Nc2cc(S(=O)(=O)[O-])cc3cc(S(=O)(=O)[O-])cc(S(=O)(=O)[O-])c23)cc1)Nc1ccc(C(=O)Nc2cc(S(=O)(=O)[O-])cc3cc(S(=O)(=O)[O-])cc(S(=O)(=O)[O-])c23)cc1.[Na+].[Na+].[Na+].[Na+].[Na+].[Na+] [8,8'-[Ureylenebis(p-phenylenecarbonylimino)]di-1,3,6-naphthalenetrisulfonicacid, hexasodium salt]	–	+4 wells	–
Cc1ccc(C(=O)Nc2cc(S(=O)(=O)O)cc3cc(S(=O)(=O)O)cc(S(=O)(=O)O)c23)cc1NC(=O)C(=O)Nc1cc(C(=O)Nc2cc(S(=O)(=O)O)cc3cc(S(=O)(=O)O)cc(S(=O)(=O)O)c23)ccc1C [8,8'-{Oxalylbis {{[imino(4-methyl-1,3-phenylene)]carbonyl}imino}}di-1,3,6-naphthalenetrisulfonic acid, hexasodium salt]	–	+4 wells	Code 036 (activity in wells) [2]: +3 wells
Cc1ccc(NC(=O)Nc2cc(S(=O)(=O)O)cc3cc(S(=O)(=O)O)cc(S(=O)(=O)O)c23)cc1NC(=O)Nc1cc(NC(=O)Nc2cc(S(=O)(=O)O)cc3cc(S(=O)(=O)O)cc(S(=O)(=O)O)c23)ccc1C [8,8'-{Ureylenebis[(4-methyl-m-phenylene)ureylene]}di-1,3,6-naphthalenetrisulfonic acid, hexasodium salt]	–	+4 wells	Code 036 (activity in wells) [2]: +1 wells
Cc1ccc(C(=O)Nc2cc(S(=O)(=O)O)cc3cc(S(=O)(=O)O)cc(S(=O)(=O)O)c23)cc1N [8-(3-Amino-p-toluamido)-1,3,6-naphthalenetrisulfonic acid, trisodium salt]	14 min	+3 wells	–
Cc1ccc(C(=O)Nc2cc(S(=O)(=O)O)cc3cc(S(=O)(=O)O)cc(S(=O)(=O)O)c23)cc1[N+](=O)[O-] [8-(3-Nitro-p-toluamido)-1,3,6-naphthalenetrisulfonic acid, trisodium salt]	25 min	+2 wells	–
Cc1cc(C(=O)Nc2cc(S(=O)(=O)O)cc3cc(S(=O)(=O)O)cc(S(=O)(=O)O)c23)ccc1N [8-(4-Amino-m-toluamido)-1,3,6-naphthalenetrisulfonic acid, trisodium salt]	14 min	+3 wells	–
Cc1cc(C(=O)Nc2cc(S(=O)(=O)O)cc3cc(S(=O)(=O)O)cc(S(=O)(=O)O)c23)ccc1[N+](=O)[O-] [8-(4-Nitro-m-toluamido)-1,3,6-naphthalenetrisulfonic acid, trisodium salt]	46 min	+1 wells	–
Cc1ccc(N)cc1C(=O)Nc1cc(S(=O)(=O)O)cc2cc(S(=O)(=O)O)cc(S(=O)(=O)O)c12 [8-(5-Amino-o-toluamido)-1,3,6-naphthalenetrisulfonic acid, trisodium salt]	14 min	–	–
Nc1ccc(C(=O)Nc2cc(S(=O)(=O)[O-])cc3cc(S(=O)(=O)[O-])cc(S(=O)(=O)[O-])c23)cc1.[Na+].[Na+].[Na+] [8-(p-Aminobenzamido)-1,3,6-naphthalenetrisulfonic acid, trisodium salt]	10 min	+3 wells	–
Nc1cccc(C(=O)Nc2cccc(C(=O)Nc3cc(S(=O)(=O)[O-])cc4cc(S(=O)(=O)[O-])cc(S(=O)(=O)[O-])c34)c2)c1.[Na+].[Na+].[Na+] [8-[m-(m-Aminobenzamido)benzamido]-1,3,6-naphthalene-trisulfonic acid, trisodium salt]	–	+2 wells	–
O=C(Nc1cc(S(=O)(=O)[O-])cc2cc(S(=O)(=O)[O-])cc(S(=O)(=O)[O-])c12)c1ccc([N+](=O)[O-])cc1.[Na+].[Na+].[Na+] [8-p-Nitrobenzamido-1,3,6-naphthalenetrisulfonic acid, trisodium salt]	13 min	+1 wells	–
Cc1ccc(NC(=O)Nc2cccc(C(=O)Nc3cc(S(=O)(=O)[O-])cc4cc(S(=O)(=O)[O-])cc(S(=O)(=O)[O-])c34)c2)cc1[N+](=O)[O-].[Na+].[Na+].[Na+] [8-{m-[3-(3-Nitro-p-tolyl)ureido]benzamido}-1,3,6-naphthalenetrisulfonic acid, trisodium salt]	32 min	+2 wells	–

From US4087548A, “Complement inhibitors” (American Cyanamid Company, priority 1976, dated 1978)
